Data reported in patent publication US20230270713A1, “Administration of Resiniferatoxin For Treatment of Bladder Pain or Bladder Cancer” (Sorrento Therapeutics, Inc., priority 2020, published 2023).
“And” between values parts separate entries of the source, which are not always exact repeats. Equal values may be shown once.

What was measured:
[1] = Plasma concentration of RTX (HPLC) after intravesical instillation in healthy cats; assay type: in vivo, cat
Experimental: (§1) To examine the effect of intravesical instillation of RTX on the bladder, 6 healthy cats, between the 2-5 years of age, were treated with either 5 (low dose), 25 (mid dose) or 50 mcg (high dose) of RTX (volume was 25 ml; concentrations were 0.2, 1, and 2 mcg/ml). These doses are considered equivalent to administration of 20, 100, or 200 mcg in a human with a volume of 100 ml. A seventh cat received saline only and served as the control. The bladders of the anesthetized cats were emptied and then flushed with sterile saline via a foley urinary catheter. Once the saline was removed, the treatment with RTX (test cats) or saline alone (control cat) was administered over 60 seconds and left in the bladder for 20 minutes.
The bladder of each cat was emptied and blood samples for pharmacokinetic analysis were collected pre-RTX treatment and at 0.5, 1, and 4 hours post RTX treatment.

[2] = Tolerability of intravesical RTX in healthy cats (physical exam, blood count, chemistry); assay type: in vivo, cat; conditions: healthy cats, 5, 25 or 50 mcg intravesical, during or post administration
Experimental: as §1
A physical exam, complete blood count and chemistry parameters were performed on day 0, 7, and 14. Complete blood count and chemistry parameters were analyzed at the Clinical Pathology Laboratory at the University of Georgia. Food consumption and signs of abnormal urination were monitored through the study period.

[3] = Adverse events in dogs with bladder cancer (Example D); assay type: in vivo, dog
Experimental: Dogs with bladder cancer were treated with RTX as follows. Under general anesthesia, RTX was infused directly into the bladder using a foley catheter. RTX remained in the bladder for 30 minutes before removal.

[4] = Adverse effects in dogs with bladder TCC (Example F); assay type: in vivo, dog; conditions: 16 dogs with bladder TCC
Experimental: RTX was administered as a one-time treatment into the bladder on Day 0 with the option of repeating RTX at a future study day. A Foley urinary catheter was placed using a sterile standard technique. An abdominal ultrasound was concurrently performed to ensure that the tip of the catheter was in the bladder lumen. Urine was removed using a catheter tipped syringe.
RTX was diluted in 0.9% NaCl and then infused into the bladder. The catheter was then flushed with 5-6 mL of 0.9% NaCl to ensure the entire IVP volume was administered. The Foley catheter was capped and remained in place for a period of 30 minutes post-infusion. The bladder was then emptied prior to removal of the Foley catheter. The timing of recovery was managed on an individual basis, but it was recommended to initiate recovery approximately 10 minutes after RTX infusion.

C=C(C)[C@]12C[C@@H](C)[C@@]34O[C@](Cc5ccccc5)(O[C@@H]1[C@@H]3C=C(COC(=O)Cc1ccc(O)c(OC)c1)C[C@]1(O)C(=O)C(C)=C[C@@H]41)O2 [RTX, resiniferatoxin]
Plasma concentration of RTX ([1]; 5 mcg total intravesical, 0 h, individual cats): BQL (BQL = Below the Quantifiable Limit (<50.0 pg/mL).) | Plasma concentration of RTX ([1]; 5 mcg total intravesical, 0.5 h, individual cats): BQL (BQL = Below the Quantifiable Limit (<50.0 pg/mL).) | Plasma concentration of RTX ([1]; 5 mcg total intravesical, 1 h, individual cats): BQL (BQL = Below the Quantifiable Limit (<50.0 pg/mL).) | Plasma concentration of RTX ([1]; 5 mcg total intravesical, 4 h, individual cats): BQL (BQL = Below the Quantifiable Limit (<50.0 pg/mL).) | Plasma concentration of RTX ([1]; 25 mcg total intravesical, 0 h, individual cats): BQL (BQL = Below the Quantifiable Limit (<50.0 pg/mL).) | Plasma concentration of RTX ([1]; 25 mcg total intravesical, 0.5 h, individual cats): 55.5 pg/ml and 10.1* pg/ml | Plasma concentration of RTX ([1]; 25 mcg total intravesical, 1 h, individual cats): BQL (BQL = Below the Quantifiable Limit (<50.0 pg/mL).) | Plasma concentration of RTX ([1]; 25 mcg total intravesical, 4 h, individual cats): BQL (BQL = Below the Quantifiable Limit (<50.0 pg/mL).) | Plasma concentration of RTX ([1]; 50 mcg total intravesical, 0 h, individual cats): BQL (BQL = Below the Quantifiable Limit (<50.0 pg/mL).) | Plasma concentration of RTX ([1]; 50 mcg total intravesical, 0.5 h, individual cats): BQL (BQL = Below the Quantifiable Limit (<50.0 pg/mL).) | Plasma concentration of RTX ([1]; 50 mcg total intravesical, 1 h, individual cats): BQL (BQL = Below the Quantifiable Limit (<50.0 pg/mL).) | Plasma concentration of RTX ([1]; 50 mcg total intravesical, 4 h, individual cats): BQL (BQL = Below the Quantifiable Limit (<50.0 pg/mL).) | Plasma levels of RTX ([1]; all 3 groups, all time points (0, 0.5, 1, 4 h) except 0.5 h (25, 50 mcg) and 1 h (25 mcg)): below 50 pg/mL | RTX in plasma ([1]; all groups, 4 hours): below quantifiable levels | concentration at 1 h ([1]; cat, plasma, other: intravesical instillation, 25 mcg, 25 mcg total intravesical, 1 h, individual cats): 0.0135 ng/mL | concentration at 0.5 h ([1]; cat, plasma, other: intravesical instillation, 50 mcg, 50 mcg total intravesical, 0.5 h, individual cats): 0.00877 ng/mL | Tolerability / clinical adverse effects [2]: well tolerated with no clinical adverse effects noted | Adverse events considered possibly attributable to RTX ([3]; Case 03-01, 25 ug (2.8 ug/kg), Day 0): Bladder spasm, urinating around catheter (Grade 1) | Adverse events considered possibly attributable to RTX ([3]; Case 03-02, 50 ug (2.6 ug/kg)): none | Adverse events considered possibly attributable to RTX ([3]; Case 41-02, 50 ug (1.3 ug/kg) dosed twice, Day 1): crying out after urination (Grade 1) | Adverse events considered possibly attributable to RTX ([3]; Case 47-02, 50 ug (2.0 ug/kg), Day 0): diarrhea, vomiting, hyperoxia (Grade 1) | dose-limiting toxicity ([3]; dogs with bladder cancer): No dose-limiting toxicity was observed | adverse events ([3]; dogs with bladder cancer, 25-100 ug intravesical): minimal, mild, and transient | grade of adverse events ([3]; dogs with bladder cancer, all adverse events): grade 1 | Tolerability ([3]; dogs with bladder cancer, all tested doses incl. maximum 50 ug or 2.8 ug/kg dosed twice 28 days apart): tolerated at all tested doses | Tolerability [4]: very well tolerated | dose dependence of the most commonly reported AE (emesis, diarrhea, anorexia) [4]: did not appear to be dose dependent | AE anorexia, number of dogs ([4]; RTX 25-100 μg intravesical): 4 dogs | AE anorexia, percent of dogs ([4]; RTX 25-100 μg intravesical): 25.0% | AE diarrhea, number of dogs ([4]; RTX 25-100 μg intravesical): 5 dogs | AE diarrhea, percent of dogs ([4]; RTX 25-100 μg intravesical): 31.3% | AE emesis, number of dogs ([4]; RTX 25-100 μg intravesical): 6 dogs | AE emesis, percent of dogs ([4]; RTX 25-100 μg intravesical): 37.5% | AE lethargy, number of dogs ([4]; RTX 25-100 μg intravesical): 4 dogs | AE lethargy, percent of dogs ([4]; RTX 25-100 μg intravesical): 25.0% | dogs with an SAE ([4]; SAE considered most likely related to tumor progression): 1 dog | severity of the most common AEs ([4]; except one anorexia event considered severe): mild to moderate (Grade 1 or 2)
